Results: patent publication US6911446B2, “Methods of modulating serine/threonine protein kinase function with quinazoline-based compounds” (Sugen, Inc., priority 1997, dated 2005)
pIC50: −log10 of the molar value.

The compounds below were run against T1, RAF-1 (Homo sapiens, UniProt P04049) (assay: RAF-1 ELISA phosphorylation assay (RAF-catalyzed phosphorylation of MEK and MAPK)). Conditions: RAF-1 phosphorylation assay, lysates from RAS/RAF infected Sf9 cells, substrates T-MEK and His-MAPK.
T1 construct: made in house; host or cells: Sf9 (Spodoptera frugiperda) cells co-infected with RAS and RAF recombinant baculoviruses
T1 sequence (P04049 whole entry): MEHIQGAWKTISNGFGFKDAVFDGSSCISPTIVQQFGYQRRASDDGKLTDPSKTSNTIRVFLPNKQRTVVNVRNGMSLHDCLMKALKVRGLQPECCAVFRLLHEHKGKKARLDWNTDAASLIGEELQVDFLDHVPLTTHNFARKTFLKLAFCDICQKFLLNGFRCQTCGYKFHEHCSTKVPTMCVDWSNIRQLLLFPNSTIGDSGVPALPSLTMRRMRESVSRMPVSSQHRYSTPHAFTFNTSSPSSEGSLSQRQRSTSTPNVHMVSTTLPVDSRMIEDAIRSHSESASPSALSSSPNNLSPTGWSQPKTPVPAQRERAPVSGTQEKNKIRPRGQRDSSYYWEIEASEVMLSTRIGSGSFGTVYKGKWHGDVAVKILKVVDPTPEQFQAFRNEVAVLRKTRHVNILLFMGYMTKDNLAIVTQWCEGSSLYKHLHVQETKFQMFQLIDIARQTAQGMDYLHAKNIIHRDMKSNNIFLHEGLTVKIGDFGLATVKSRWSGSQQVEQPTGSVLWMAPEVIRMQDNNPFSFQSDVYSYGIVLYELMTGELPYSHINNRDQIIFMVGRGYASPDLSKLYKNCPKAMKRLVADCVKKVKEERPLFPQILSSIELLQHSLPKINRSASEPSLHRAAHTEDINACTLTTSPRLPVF
Assay type: biochemical
Excerpt: The following assay reports the amount of RAF-catalyzed phosphorylation of its target protein MEK as well as MEK's target MAPK. The RAF gene sequence is described in Bonner et al., 1985, Molec. Cell. Biol. 5: 1400-1407, and is readily accessible in multiple gene sequence data banks. Construction of the nucleic acid vector and cell lines utilized for this portion of the invention are fully described in Morrison et al., 1988, Proc. Natl. Acad. Sci. USA 85: 8855-8859.
• 1. Sf9 (Spodoptera frugiperda) cells; GIBCO-BRL, Gaithersburg, Md. • 2. RIPA buffer: 20 mM Tris/HCl pH 7.4, 137 mM NaCl, 10% glycerol, 1 mM PMSF, 5 mg/L Aprotenin, 0.5% Triton X-100; • 3. Thioredoxin-MEK fusion protein (T-MEK): T-MEK expression and purification by affinity chromatography were performed according to the manufacturer's procedures. Catalog#K 350-01 and R 350-40, Invitrogen Corp., San Diego, Calif. • 4. His-MAPK (ERK 2); His-tagged MAPK was expressed in XL1 Blue cells transformed with pUC18 vector encoding His-MAPK. His-MAPK was purified by Ni-affinity chromatography. Cat#27-4949-01, Pharmacia, Alameda, Calif., as described herein. • 5. Sheep anti mouse IgG: Jackson laboratories, West Grove, Pa. Catalog, #515-006-008, Lot#28563 • 6. RAF-1 protein kinase specific antibody: URP2653 from UBI. • 7. Coating buffer: PBS; phosphate buffered saline, GIBCO-BRL, Gaithersburg, Md. • 8. Wash buffer: TBST-50 mM Tris/HCL pH 7.2, 150 mM NaCl, 0.1% Triton X-100 • 9. Block buffer: TBST, 0.1% ethanolamine pH 7.4 • 10. DMSO, Sigma, St. Louis, Mo. • 11. Kinase buffer (KB): 20 mM Hepes/HC1 pH 7.2, 150 mM NaCl, 0.1% Triton X-100, 1 mM PMSF, 5 mg/L Aprotenin, 75 μM sodium ortho vanadate, 0.5 MM DTT and 10 mM MgCl2. • 12. ATP mix: 100 mM MgCl2, 300 μM ATP, 10 μCi γ-^33P ATP (Dupont-NEN)/mL. • 13 Stop solution: 1% phosphoric acid; Fisher, Pittsburgh, Pa. • 14. Wallac Cellulose Phosphate Filter mats; Wallac, Turku, Finnland. • 15. Filter wash solution: 1% phosphoric acid, Fisher, Pittsburgh, Pa. • 16. Tomtec plate harvester, Wallac, Turku, Finnland. • 17. Wallac beta plate reader #1205, Wallac, Turku, Finnland. • 18. NUNC 96-well V bottom polypropylene plates for compounds Applied Scientific Catalog #AS-72092. Procedure
All of the following steps were conducted at room temperature unless specifically indicated. • 1. ELISA plate coating: ELISA wells are coated with 100 μL of Sheep anti mouse affinity purified antiserum (1 μg/100 μL coating buffer) over night at 4° C. ELISA plates can be used for two weeks when stored at 4° C. • 2. Invert the plate and remove liquid. Add 100 μL of blocking solution and incubate for 30 min. • 3. Remove blocking solution and wash four times with wash buffer. Pat the plate on a paper towel to remove excess liquid. • 4. Add 1 μg of antibody specific for RAF-1 to each well and incubate for 1 hour. Wash as described in step 3. • 5. Thaw lysates from RAS/RAF infected Sf9 cells and dilute with TBST to 10 μg/100 μL. Add 10 μg of diluted lysate to the wells and incubate for 1 hour. Shake the plate during incubation. Negative controls receive no lysate. Lysates from RAS/RAF infected Sf9 insect cells are prepared after cells are infected with recombinant baculoviruses at a MOI of 5 for each virus, and harvested 48 hours later. The cells are washed once with PBS and lysed in RIPA buffer. Insoluble material is removed by centrifugation (5 min at 10,000×g). Aliquots of lysates are frozen in dry ice/ethanol and stored at −80° C. until use. • 6. Remove non-bound material and wash as outlined above (step 3). • 7. Add 2 μg of T-MEK and 2 μg of His-MAEPK per well and adjust the volume to 40 μL with kinase buffer. Methods for purifying T-MEK and MAPK from cell extracts are provided herein by example. • 8. Predilute compounds (stock solution 10 mg/mL DMSO) or extracts 20 fold in TBST plus 1% DMSO. Add 5 μL of the prediluted compounds/extracts to the wells described in step 6. Incubate for 20 min. Controls receive no drug. • 9. […]

SMILES | pIC50
Nc1nc(N)c2c(Oc3ccccc3)cccc2n1 [Compound A-1, 2,4-Diamino-5-phenoxyquinazoline] | 6.52
COc1ccccc1Oc1cccc2nc(N)nc(N)c12 [Compound A-22, 2,4-Diamino-5-(2-methoxyphenoxy)quinazoline] | 4.70
COc1cccc(Oc2cccc3nc(N)nc(N)c23)c1 [Compound A-23, 2,4-Diamino-5-(3-methoxyphenoxy)quinazoline] | 5.19
Nc1ncnc2cccc(Oc3ccc(OCc4ccccc4)cc3)c12 [Compound A-28, 4-Amino-5-(4-benzyloxyphenoxy)quinazoline] | 6.52

The next lines start with the values.

pIC50 | SMILES
6.10 | COc1ccc(Oc2cccc3nc(N)nc(N)c23)cc1 [Compound A-6, 2,4-Diamino-5-(4-methoxyphenoxy)quinazoline]
5.24 | Nc1nc(N)c2c(Oc3ccc(F)cc3)cccc2n1 [Compound A-7, 2,4-Diamino-5-(4-fluorophenoxy)quinazoline]
< 4.00 | CC(C)(C)c1ccc(Oc2cccc3nc(N)nc(N)c23)cc1 [Compound A-8, 2,4-Diamino-5-(4-tert-butylphenoxy)quinazoline]
5.35 | Cc1ccc(Oc2cccc3nc(N)nc(N)c23)cc1 [Compound A-9, 2,4-Diamino-5-(4-methylphenoxy)quinazoline]
